Measured values reported in ChEMBL document CHEMBL5154908, “Design, Synthesis, and Biological Characterization of Inhaled p38α/β MAPK Inhibitors for the Treatment of Lung Inflammatory Diseases” (J Med Chem, 2022).
Converted amounts (≈) assume the structure as drawn.

What was measured:
Rattus norvegicus [1] = assay: Antiinflammatory activity against LPS-induced Sprague-Dawley rat inflammatory model assessed as inhibition of neutrophil cells release in BALF at 0.1 mg/kg, IT preincubated for 2 hrs followed by LPS-stimulation and measured after 4 hrs relative to control; type: functional; parameters: scale not given: the % may be the effect or the level left; conditions: time 6 hrs
Rattus norvegicus [2] = assay: Antiinflammatory activity against LPS-induced Sprague-Dawley rat inflammatory model assessed as inhibition of neutrophil cells release in BALF at 0.3 mg/kg, IT preincubated for 2 hrs followed by LPS-stimulation and measured after 4 hrs relative to control; type: functional; parameters: scale not given: the % may be the effect or the level left; conditions: time 6 hrs
[3] = Inhibition of LPS-stimulated TNFalpha release in human PBMC cells preincubated for 1 hr followed by LPS stimulation and measured after 18 hrs; type: functional, cell-based
[4] = Cmax in Sprague-Dawley rat lung homogenate at 0.3 mg/kg, IT measured after 0.8 hrs by LC/MS/MS analysis; type: ADME, organism-based; parameters: time 0.8 hrs, dose 0.3 mg/kg, route it
[5] = Drug concentration in Sprague-Dawley rat lung homogenate at 0.3 mg/kg, IT measured after 24 hrs by LC/MS/MS analysis; type: ADME, organism-based; conditions: read-out: Ct
[6] = Drug uptake in Sprague-Dawley rat lung homogenate at 0.03 mg/kg, IT measured after 24 hrs by LC/MS/MS analysis; type: ADME, organism-based; conditions: in vivo, other
[7] = Cmax in Sprague-Dawley rat plasma at 0.3 mg/kg, IT measured after 0.8 hrs by LC/MS/MS analysis; type: ADME, organism-based; parameters: time 0.8 hrs, dose 0.3 mg/kg, route it
Rattus norvegicus [8] = assay: Antiinflammatory activity against LPS-induced Sprague-Dawley rat inflammatory model assessed as inhibition of neutrophil cells release in BALF at 0.3 mg/kg, IT incubated for 9 hrs followed by LPS-stimulation relative to control; type: functional
[9] = Protein binding in rat lung homogenate at 10 uM incubated for 4 hrs by LC/MS/MS analysis; type: ADME, tissue-based; conditions: read-out: PB (converted)
[10] = Selectivity index, ratio of drug concentration in Sprague-Dawley rat lung homogenate to IC50 for human p38alpha; type: tissue-based; conditions: tissue homogenate
[11] = target: T1, Mitogen-activated protein kinase 14 (Homo sapiens, UniProt Q16539); assay: Displacement of SKF-86002 from human inactivated p38alpha assessed as dissociation half life incubated for 2 hrs by fluorescence based analysis
T1 sequence (Q16539 whole entry): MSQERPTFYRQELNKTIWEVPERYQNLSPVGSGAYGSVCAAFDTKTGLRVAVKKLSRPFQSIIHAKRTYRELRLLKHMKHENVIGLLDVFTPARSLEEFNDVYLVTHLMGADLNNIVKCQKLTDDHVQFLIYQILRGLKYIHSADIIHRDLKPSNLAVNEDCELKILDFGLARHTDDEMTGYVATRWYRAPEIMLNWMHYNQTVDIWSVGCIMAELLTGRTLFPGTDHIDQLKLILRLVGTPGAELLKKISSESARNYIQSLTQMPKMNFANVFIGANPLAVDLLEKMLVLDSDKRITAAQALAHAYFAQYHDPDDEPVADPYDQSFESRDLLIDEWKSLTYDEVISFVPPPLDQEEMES

[12] = target: T1, Mitogen-activated protein kinase 14; assay: Inhibition of human recombinant full length GST-tagged p38alpha expressed in Escherichia coli preincubated for 2 hrs followed by ATP addition and measured after 1 hr by Alpha screen assay
[13] = Permeability across apical to basolateral side in human Caco-2 cells at 10 uM measured after 60 mins by LC/MS/MS analysis; type: ADME, cell-based; conditions: read-out: permeability
[14] = target: Mitogen-activated protein kinase 11 (Homo sapiens, UniProt Q15759); assay: Inhibition of recombinant human full length His-tagged p38beta expressed in baculovirus expression system preincubated for 2 hrs followed by ATP addition and measured after 1 hr by Alpha screen assay
Sequence of Mitogen-activated protein kinase 11 (Q15759 whole entry): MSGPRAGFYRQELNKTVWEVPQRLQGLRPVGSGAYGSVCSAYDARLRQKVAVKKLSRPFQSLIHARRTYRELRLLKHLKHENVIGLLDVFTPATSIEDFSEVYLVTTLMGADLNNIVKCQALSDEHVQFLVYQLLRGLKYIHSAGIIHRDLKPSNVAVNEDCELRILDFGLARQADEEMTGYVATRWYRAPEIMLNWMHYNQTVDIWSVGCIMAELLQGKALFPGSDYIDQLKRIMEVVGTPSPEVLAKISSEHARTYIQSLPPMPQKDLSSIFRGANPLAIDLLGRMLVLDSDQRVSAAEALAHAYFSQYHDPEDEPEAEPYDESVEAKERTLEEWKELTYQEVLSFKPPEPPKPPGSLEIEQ

[15] = Drug uptake in Sprague-Dawley rat lung homogenate at 0.03 mg/kg, IT measured after 7 hrs by LC/MS/MS analysis; type: ADME, organism-based; conditions: in vivo, other
[16] = target: T2, Mitogen-activated protein kinase 13 (Homo sapiens, UniProt O15264); assay: Inhibition of recombinant human full length His-tagged p38delta expressed in baculovirus expression system preincubated for 2 hrs followed by ATP addition and measured after 1 hr by Alpha screen assay
T2 sequence (O15264 whole entry): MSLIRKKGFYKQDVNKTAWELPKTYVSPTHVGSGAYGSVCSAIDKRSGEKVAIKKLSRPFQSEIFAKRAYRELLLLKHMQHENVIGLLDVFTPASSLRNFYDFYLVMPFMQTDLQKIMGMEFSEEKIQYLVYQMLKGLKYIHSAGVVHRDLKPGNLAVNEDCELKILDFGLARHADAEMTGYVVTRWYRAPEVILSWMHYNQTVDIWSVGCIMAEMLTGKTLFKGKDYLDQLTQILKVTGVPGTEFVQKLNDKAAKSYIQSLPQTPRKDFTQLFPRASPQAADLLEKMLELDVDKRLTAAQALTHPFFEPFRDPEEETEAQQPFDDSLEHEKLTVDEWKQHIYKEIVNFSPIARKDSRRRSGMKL

[17] = Solubility of the compound at >=1 mg/ml measured after 30 mins by HPLC analysis; type: physicochemical
[18] = Efflux ratio of permeability in human Caco-2 cells at 10 uM measured after 60 mins by LC-MS/MS analysis; type: ADME, cell-based
[19] = target: T3, Mitogen-activated protein kinase 12 (Homo sapiens, UniProt P53778); assay: Inhibition of recombinant human full length His-tagged p38gamma expressed in baculovirus expression system preincubated for 2 hrs followed by ATP addition and measured after 1 hr by Alpha screen assay
T3 sequence (P53778 whole entry): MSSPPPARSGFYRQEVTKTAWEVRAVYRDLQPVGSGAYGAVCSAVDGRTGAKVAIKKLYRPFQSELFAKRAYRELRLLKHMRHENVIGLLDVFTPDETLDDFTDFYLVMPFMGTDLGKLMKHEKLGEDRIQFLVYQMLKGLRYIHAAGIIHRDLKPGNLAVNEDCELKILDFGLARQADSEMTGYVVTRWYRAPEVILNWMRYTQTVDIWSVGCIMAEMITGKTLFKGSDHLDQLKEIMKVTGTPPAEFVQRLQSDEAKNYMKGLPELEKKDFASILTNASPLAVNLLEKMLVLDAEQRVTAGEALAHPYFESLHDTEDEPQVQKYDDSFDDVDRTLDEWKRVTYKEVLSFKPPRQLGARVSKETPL

[20] = Protein binding in rat plasma at 10 uM incubated for 4 hrs by LC/MS/MS analysis; type: ADME, cell-free; conditions: read-out: PPB (converted)
[21] = Protein binding in human plasma at 10 uM incubated for 4 hrs by LC/MS/MS analysis; type: ADME, cell-free; conditions: read-out: PPB
[22] = Metabolic stability in rat liver microsomes assessed as half life at 1 uM preincubated for 10 mins followed by NADPH addition and measured after 30 mins by LC/MS/MS analysis; type: ADME, Microsome; conditions: time 40 min
[23] = Drug concentration in Sprague-Dawley rat lung homogenate at 1 mg/kg, IT measured after 24 hrs by LC/MS/MS analysis; type: ADME, organism-based; conditions: read-out: Ct
Rattus norvegicus [24] = assay: Antiinflammatory activity against LPS-induced Sprague-Dawley rat inflammatory model assessed as inhibition of neutrophil cells release in BALF at 1 mg/kg, IT measured after 24 hrs relative to control; type: functional
[25] = Cmax in Sprague-Dawley rat lung homogenate at 0.03 mg/kg, IT measured after 0.8 hrs by LC/MS/MS analysis; type: ADME, organism-based; parameters: time 0.8 hrs, dose 0.03 mg/kg, route it
[26] = Terminal half life in Sprague-Dawley rat lung homogenate at 0.03 mg/kg, IT measured after 24 hrs by LC/MS/MS analysis; type: ADME, organism-based; conditions: read-out: beta t1/2
Rattus norvegicus [27] = assay: Antiinflammatory activity against LPS-induced Sprague-Dawley rat inflammatory model assessed as inhibition of neutrophil cells release in BALF at 1 mg/kg, IT measured after 1 hr relative to control; type: functional
[28] = Cmax in Sprague-Dawley rat plasma at 0.03 mg/kg, IT measured after 0.8 hrs by LC/MS/MS analysis; type: ADME, organism-based; parameters: dose 0.03 mg/kg, time 0.8 hrs, route it
[29] = target: T4, Discoidin domain-containing receptor 2 (Homo sapiens) (UniProt Q16832); assay: Inhibition of human DDR2 at 100 nM by KINOMEscan assay relative to control
T4 sequence (whole entry): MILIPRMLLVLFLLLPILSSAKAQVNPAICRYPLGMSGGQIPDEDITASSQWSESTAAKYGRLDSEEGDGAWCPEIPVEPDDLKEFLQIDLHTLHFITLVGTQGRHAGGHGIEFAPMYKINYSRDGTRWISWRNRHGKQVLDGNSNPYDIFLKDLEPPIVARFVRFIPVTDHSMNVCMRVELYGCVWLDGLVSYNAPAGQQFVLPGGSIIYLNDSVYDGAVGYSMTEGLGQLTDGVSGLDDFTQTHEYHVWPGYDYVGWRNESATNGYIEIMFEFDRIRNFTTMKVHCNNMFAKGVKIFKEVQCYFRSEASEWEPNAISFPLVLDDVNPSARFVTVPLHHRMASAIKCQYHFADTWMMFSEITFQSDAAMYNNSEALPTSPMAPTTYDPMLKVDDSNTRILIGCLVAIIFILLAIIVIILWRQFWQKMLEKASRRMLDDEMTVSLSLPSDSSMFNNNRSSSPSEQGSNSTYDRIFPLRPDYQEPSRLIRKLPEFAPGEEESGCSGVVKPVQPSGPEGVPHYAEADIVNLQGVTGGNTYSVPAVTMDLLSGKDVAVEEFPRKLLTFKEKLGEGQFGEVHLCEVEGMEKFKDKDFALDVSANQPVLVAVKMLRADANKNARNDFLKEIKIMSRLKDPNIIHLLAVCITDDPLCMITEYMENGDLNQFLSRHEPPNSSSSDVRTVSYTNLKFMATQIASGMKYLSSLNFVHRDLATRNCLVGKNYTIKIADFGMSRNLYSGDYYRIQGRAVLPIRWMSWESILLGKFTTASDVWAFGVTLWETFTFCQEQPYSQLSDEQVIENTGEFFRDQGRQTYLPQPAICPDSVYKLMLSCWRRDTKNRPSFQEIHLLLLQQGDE

[30] = target: TRAF2 and NCK-interacting protein kinase (Homo sapiens) (UniProt Q9UKE5); assay: Inhibition of TNIK (unknown origin) at 100 nM by KINOMEscan assay relative to control
Sequence of TRAF2 and NCK-interacting protein kinase (Homo sapiens) (Q9UKE5 whole entry, looked up, the tested form may be a part): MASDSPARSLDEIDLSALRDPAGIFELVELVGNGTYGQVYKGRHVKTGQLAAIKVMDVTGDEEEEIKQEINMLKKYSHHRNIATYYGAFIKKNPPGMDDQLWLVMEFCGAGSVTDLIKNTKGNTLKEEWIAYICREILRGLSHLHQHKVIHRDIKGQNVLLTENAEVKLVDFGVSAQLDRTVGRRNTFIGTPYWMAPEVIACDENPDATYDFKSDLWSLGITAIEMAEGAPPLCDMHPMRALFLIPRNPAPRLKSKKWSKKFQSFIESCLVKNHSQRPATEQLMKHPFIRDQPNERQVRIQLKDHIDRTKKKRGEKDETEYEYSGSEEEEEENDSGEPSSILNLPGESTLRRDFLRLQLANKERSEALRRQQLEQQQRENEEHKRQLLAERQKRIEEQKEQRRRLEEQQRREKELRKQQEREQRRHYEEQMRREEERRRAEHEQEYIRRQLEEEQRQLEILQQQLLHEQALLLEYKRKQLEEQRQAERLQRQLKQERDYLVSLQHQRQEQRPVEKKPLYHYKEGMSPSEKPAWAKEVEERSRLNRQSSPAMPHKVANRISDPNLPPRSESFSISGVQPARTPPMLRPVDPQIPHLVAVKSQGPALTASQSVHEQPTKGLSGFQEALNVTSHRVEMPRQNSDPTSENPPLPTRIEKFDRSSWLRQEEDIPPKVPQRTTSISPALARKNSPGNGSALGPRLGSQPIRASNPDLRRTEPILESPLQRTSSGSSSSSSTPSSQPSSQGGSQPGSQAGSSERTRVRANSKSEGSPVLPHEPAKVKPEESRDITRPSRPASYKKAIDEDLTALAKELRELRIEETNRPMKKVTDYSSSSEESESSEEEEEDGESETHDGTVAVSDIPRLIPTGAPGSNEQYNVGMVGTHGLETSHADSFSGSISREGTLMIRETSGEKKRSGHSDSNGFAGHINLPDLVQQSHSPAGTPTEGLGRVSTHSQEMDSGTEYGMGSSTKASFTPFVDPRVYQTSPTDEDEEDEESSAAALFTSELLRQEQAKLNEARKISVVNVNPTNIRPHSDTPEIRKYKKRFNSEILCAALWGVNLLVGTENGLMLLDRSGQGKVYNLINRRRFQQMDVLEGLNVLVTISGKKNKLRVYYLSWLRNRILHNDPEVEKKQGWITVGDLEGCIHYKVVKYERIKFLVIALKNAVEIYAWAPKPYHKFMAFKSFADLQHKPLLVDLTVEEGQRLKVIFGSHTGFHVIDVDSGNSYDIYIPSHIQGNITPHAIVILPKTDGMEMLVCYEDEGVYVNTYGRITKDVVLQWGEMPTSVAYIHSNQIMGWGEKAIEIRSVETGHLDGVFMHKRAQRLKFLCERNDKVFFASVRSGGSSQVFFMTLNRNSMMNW

[31] = target: Epithelial discoidin domain-containing receptor 1 (Homo sapiens) (UniProt Q08345); assay: Inhibition of human DDR1 at 100 nM by KINOMEscan assay relative to control
Sequence of Epithelial discoidin domain-containing receptor 1 (Homo sapiens) (Q08345 whole entry, the tested form may be a part): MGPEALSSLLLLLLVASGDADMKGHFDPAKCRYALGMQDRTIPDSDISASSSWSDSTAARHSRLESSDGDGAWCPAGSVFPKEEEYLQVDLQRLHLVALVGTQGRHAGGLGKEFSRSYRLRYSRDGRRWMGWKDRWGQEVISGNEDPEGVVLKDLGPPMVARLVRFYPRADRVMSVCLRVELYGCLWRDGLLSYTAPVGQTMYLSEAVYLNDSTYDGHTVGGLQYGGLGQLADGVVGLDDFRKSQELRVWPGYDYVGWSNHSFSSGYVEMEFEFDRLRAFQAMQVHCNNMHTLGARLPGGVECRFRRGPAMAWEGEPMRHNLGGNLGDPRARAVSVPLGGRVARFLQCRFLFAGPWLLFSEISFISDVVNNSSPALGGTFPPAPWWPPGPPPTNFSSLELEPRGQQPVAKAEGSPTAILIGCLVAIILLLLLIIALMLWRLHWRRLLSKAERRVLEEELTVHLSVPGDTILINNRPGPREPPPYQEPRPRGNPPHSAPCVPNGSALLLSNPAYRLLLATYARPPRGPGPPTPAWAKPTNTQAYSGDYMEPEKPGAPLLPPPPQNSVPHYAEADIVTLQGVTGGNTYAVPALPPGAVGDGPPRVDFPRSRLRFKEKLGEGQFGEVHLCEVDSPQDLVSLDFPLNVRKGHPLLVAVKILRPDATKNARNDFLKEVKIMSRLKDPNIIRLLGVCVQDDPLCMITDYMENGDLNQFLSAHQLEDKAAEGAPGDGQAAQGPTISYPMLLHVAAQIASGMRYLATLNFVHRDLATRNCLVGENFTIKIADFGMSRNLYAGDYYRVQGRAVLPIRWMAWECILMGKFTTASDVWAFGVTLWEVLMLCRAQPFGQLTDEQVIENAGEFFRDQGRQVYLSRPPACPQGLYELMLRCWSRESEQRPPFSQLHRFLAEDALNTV

[32] = target: Citron Rho-interacting kinase (Homo sapiens) (UniProt O14578); assay: Inhibition of human CIT at 100 nM by KINOMEscan assay relative to control
[33] = target: Ephrin type-A receptor 4 (Homo sapiens) (UniProt P54764); assay: Inhibition of EphA4 (unknown origin) at 1 uM relative to control
Sequence of Ephrin type-A receptor 4 (Homo sapiens) (P54764 whole entry): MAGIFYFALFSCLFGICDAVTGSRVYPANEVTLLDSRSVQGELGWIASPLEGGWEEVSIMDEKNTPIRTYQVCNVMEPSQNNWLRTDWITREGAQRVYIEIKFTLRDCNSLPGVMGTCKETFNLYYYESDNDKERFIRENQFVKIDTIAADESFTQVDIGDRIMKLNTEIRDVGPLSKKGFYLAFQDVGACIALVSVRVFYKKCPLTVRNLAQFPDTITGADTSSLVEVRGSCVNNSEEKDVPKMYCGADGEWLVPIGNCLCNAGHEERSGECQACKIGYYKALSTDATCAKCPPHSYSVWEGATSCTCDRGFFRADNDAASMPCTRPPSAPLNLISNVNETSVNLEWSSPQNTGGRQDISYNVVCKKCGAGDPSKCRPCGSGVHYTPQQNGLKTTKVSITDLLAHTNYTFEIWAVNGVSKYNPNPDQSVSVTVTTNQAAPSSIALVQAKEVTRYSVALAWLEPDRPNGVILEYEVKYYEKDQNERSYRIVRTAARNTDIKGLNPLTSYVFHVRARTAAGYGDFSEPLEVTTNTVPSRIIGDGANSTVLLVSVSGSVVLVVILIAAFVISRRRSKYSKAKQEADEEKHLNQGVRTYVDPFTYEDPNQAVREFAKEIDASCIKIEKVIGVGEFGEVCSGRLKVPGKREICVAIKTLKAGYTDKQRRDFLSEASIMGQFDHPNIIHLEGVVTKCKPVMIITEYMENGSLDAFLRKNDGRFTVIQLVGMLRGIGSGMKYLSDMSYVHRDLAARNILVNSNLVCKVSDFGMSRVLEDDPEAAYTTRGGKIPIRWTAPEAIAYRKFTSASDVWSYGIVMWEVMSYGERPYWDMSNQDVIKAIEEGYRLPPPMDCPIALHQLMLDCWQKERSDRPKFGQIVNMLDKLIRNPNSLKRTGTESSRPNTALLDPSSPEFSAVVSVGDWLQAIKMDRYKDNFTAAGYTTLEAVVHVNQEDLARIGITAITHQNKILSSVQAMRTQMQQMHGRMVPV

[34] = target: T1, Mitogen-activated protein kinase 14; assay: Binding affinity to biotinylated P38alpha assessed as dissociation half life by SPR analysis

| IC50 [3] | Drug uptake [6] | fraction unbound at 4 h, 10 µM [9] | T1/2 [11] | IC50 [12] | Papp A→B at 1 h, 10 µM [13] | IC50 [14] | Drug uptake [15] | IC50 [16] | solubility at 0.5 h [17] | IC50 [19] | fraction unbound at 4 h, 10 µM [20] | SMILES | Ratio [10] | further results |
| --- | --- | --- | --- | --- | --- | --- | --- | --- | --- | --- | --- | --- | --- | --- |
|  |  |  |  |  |  |  |  |  |  |  |  | C[C@H]1CCCCN1c1nnc2ccc(O[C@@H]3CC[C@H](NC(=O)Nc4cc(C(C)(C)C)nn4-c4cnn(CCN(C)C)c4)c4ccccc43)cn12.Cl |  | Activity (Rattus norvegicus [1]): 55%; Activity (Rattus norvegicus [2]): 49% |
| 0.5 nM | 5.4% | 0.002 | > 16 h | 0.05 nM | 1.9 ×10⁻⁶ cm/s | 0.1 nM | 10% | > 10000 nM | 620 µg/mL (≈ 893 µM) | 805 nM | 0.004 | C[C@@H]1CCC[C@H](C)N1c1nnc2ccc(O[C@@H]3CC[C@H](NC(=O)Nc4cc(C(C)(C)C)nn4-c4cnn(CCN(C)C)c4)c4ccccc43)cn12 | 183 | Cmax [4]: 6360 nM; concentration at 24 h [5]: 4580 nM; Cmax [7]: 30 nM; inhibition in vivo at 0.3 mg/kg (Rattus norvegicus [8]): 43%; efflux ratio at 1 h, 10 µM [18]: > 2.5 |
| 0.1 nM | 9.6% | 0.004 | > 16 h | 0.2 nM | 2.8 ×10⁻⁶ cm/s | 0.2 nM | 8.4% | > 5000 nM | 10 µg/mL (≈ 17.3 µM) | 164 nM | < 0.001 | Cc1ccc(-n2nc(C(C)(C)C)cc2NC(=O)N[C@H]2CC[C@@H](Oc3ccc4nnc(C(C)C)n4c3)c3ccccc32)cc1 | 149 | fraction unbound at 4 h, 10 µM [21]: 0.001; half-life at 1 µM [22]: < 0.167 h; concentration at 24 h [23]: 29800 nM; inhibition in vivo at 1 mg/kg (Rattus norvegicus [24]): -3%; Cmax [25]: 1080 nM; half-life [26]: > 24 h; inhibition in vivo at 1 mg/kg (Rattus norvegicus [27]): 50%; Cmax [28]: 90 nM |
|  |  |  | > 16 h |  |  |  |  |  |  |  |  | C[C@H]1CCCCN1c1nnc2ccc(O[C@@H]3CC[C@H](NC(=O)Nc4cc(C(C)(C)C)nn4-c4cnn(CCN(C)C)c4)c4ccccc43)cn12 |  | inhibition [29]: > 50%; inhibition [30]: > 50%; inhibition [31]: > 50%; inhibition [32]: > 50%; inhibition [33]: 82%; T1/2 [34]: 51 h |
